In general, IC50 refers to the concentration that gives 50% inhibition.

Where two headings read alike, the source gives them in different places.

The source of these data is patent US11708360B2, “N-substituted-dioxocyclobutenylamino-3-hydroxy-picolinamides useful as CCR6 inhibitors” (Pfizer Inc., priority 2018, dated 2023).

For assay [1], the target named is T1, CXCR2 (Homo sapiens, UniProt P25025).
T1 sequence (P25025 1-360): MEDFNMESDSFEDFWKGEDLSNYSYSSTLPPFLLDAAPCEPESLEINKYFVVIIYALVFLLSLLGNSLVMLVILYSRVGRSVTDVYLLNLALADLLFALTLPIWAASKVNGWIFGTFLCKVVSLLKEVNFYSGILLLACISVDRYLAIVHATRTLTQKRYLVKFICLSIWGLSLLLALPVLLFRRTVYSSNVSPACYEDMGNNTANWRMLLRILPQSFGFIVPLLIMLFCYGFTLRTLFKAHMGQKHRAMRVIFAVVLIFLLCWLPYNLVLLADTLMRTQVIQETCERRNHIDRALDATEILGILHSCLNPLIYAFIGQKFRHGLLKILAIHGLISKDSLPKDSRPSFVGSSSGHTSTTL
Also noted: host or cells: Path-Hunter HEK293 cells. As to conditions: Table 16; data disclosed in WO 2013/061005; β-arrestin recruitment, CXCL8, Path-Hunter HEK293 cells; cited from earlier work. (Activated receptors often draw arrestin, which recruitment assays turn into a signal.)

In assay [2] the target is T1, CXCR2. The assay is described as follows: Human Neutrophil Chemotaxis Assay. It counts as cell-based. Further details: Human neutrophils were purified from freshly drawn human whole blood; endogenous in cells; host or cells: primary human neutrophils from fresh whole blood. The procedure:
After 30 min, the labeled neutrophils were washed twice in chemotaxis buffer, resuspended as before and used immediately. For the assay, test compounds were tested in a dose-response format to determine IC50. Labeled neutrophils (50 μL) were pre-incubated with diluted test compound (50 μL) for 30 min in a 96-well plate (Greiner). Next, 100 μL of diluted compound was mixed with 100 μL of GROα (Peprotech #300-11, 2 nM) in the bottom portion of the chemotaxis chamber. The top portion (insert) of the chemotaxis system containing the FluoroBlok porous membrane was then assembled together. 50 μL of the pre-incubated neutrophils were added to the FluoroBlok insert (top portion) and chemotaxis measured by the neutrophils ability to migrate through the membrane towards the specific CXCR2 ligand, GROα.
IC50 values for compounds of the present invention (Table 12) were determined by the non-linear regression analysis of dose response curves.

The next assay has as its target T2, CCR6 (Homo sapiens, UniProt P51684).
T2 construct: Human CD4+CCR6+CXCR3-T cells were isolated from leukopak from healthy donors; endogenous in cells
T2 sequence (P51684 1-374): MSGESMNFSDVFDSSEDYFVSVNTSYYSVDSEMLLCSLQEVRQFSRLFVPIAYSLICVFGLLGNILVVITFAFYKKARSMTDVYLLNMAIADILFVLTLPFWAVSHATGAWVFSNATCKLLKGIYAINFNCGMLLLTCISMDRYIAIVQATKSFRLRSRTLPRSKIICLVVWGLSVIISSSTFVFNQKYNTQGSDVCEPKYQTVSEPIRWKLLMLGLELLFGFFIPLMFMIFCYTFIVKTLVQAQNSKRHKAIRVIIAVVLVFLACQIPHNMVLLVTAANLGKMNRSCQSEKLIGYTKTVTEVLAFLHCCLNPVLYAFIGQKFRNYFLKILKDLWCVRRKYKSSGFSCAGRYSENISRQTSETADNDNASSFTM
Briefly: CCR6+ T Cell Chemotaxis Assay. It is filed as cell-based. As to conditions: for T Cell Chemotaxis Selectivity: Table 13, T cell chemotaxis compared to neutrophil chemotaxis; for T Cell Chemotaxis Selectivity / R = H, T Cell Chemotaxis Selectivity: NS = not selective for T cell chemotaxis compared to neutrophil chemotaxis. The source says:
Human CD4+CCR6+CXCR3-T cells were isolated from leukopak from healthy donors using EasySep™ Human Th17 Cell Enrichment Kit. […] Day 4 post activation, Dynabeads were removed from the culture. The activated T cells were maintained at 1-2×10^6 cells/mL for 15 days by feeding fresh growth media when needed.
For IC50 determination, the top and bottom of the chemotaxis chamber contained the same concentration of compound. DMSO was kept constant at 0.1% (v/v) in all wells. The final concentration of CCL20 (Peprotech 300-29A) in the bottom chamber is 0.5 nM. The fully assembled chemotaxis plate was placed in a cell culture incubator at 37° C., 5% CO2 for 1 h. After incubation, the top filter was removed, followed by a quick freeze of the bottom chamber at −80° C. for 1 h. The migrated cells in the bottom chamber were stained with CyQUANT dye (Life Technologies, C7026) for cell number determination.
IC50 values for compounds of the present invention (Table 11) were determined by the non-linear regression analysis of dose response curves.

[3] abbreviates: Table 17, WO 2013/061005 comparator compounds, read-out: IC50 (nM) CXCR2 Neutrophil, GROα Chemotaxis.
[4] abbreviates: Table 11, human CD4+CCR6+CXCR3- T cells, CCL20 0.5 nM in bottom chamber, 1 h at 37° C., read-out: IC50.
The mark [5] stands for this setting: Table 12, human neutrophils migrating towards the CXCR2 ligand GROα, read-out: IC50.
Where [6] appears, read: Table 14, R = H, read-out: R = H, IC50 (nM) CCR6 T cell, CCL20 Chemotaxis.
[7] abbreviates: Table 14, R = H, read-out: R = H, IC50 (nM) CXCR2 Neutrophil, GROα Chemotaxis.

Consider `Cc1ccc([C@H](Nc2c(Nc3ccc(Cl)c(S(=O)(=O)N(C)C)c3O)c(=O)c2=O)C2(C)COC2)o1` [Example 22 (WO 2013/061005), reference compound], for which the values for the IC50 on CXCR2 [1] and at CXCR2 [2] (setting [3]) were 31 nM and 35.2 nM, respectively.

`Cc1sc(CO)nc1[C@H](Nc1c(Nc2ccnc(C(=O)N(C)C)c2O)c(=O)c1=O)C1(C)CCCC1` [Example 28, (R)-3-Hydroxy-4-((2-(((2-(hydroxymethyl)-5-methylthiazol-4-yl)(1-methylcyclopentyl)methyl)amino)-3,4-dioxocyclobut-1-en-1-yl)amino)-N,N-dimethylpicolinamide]: the IC50 turned out to be 36.7 nM on CCR6 (setting [4]) and 2190 nM at CXCR2 [2] (setting [5]). For the same compound, the “T Cell Chemotaxis Selectivity” value on CCR6 stood at 60.

Consider `CN(C)C(=O)c1nccc(Nc2c(N[C@@H](c3nn(C)cc3C3CC3)C3(C)CCCC3)c(=O)c2=O)c1O` [Example 29, (R)-4-((2-(((4-Cyclopropyl-1-methyl-1H-pyrazol-3-yl)(1-methylcyclopentyl)methyl)amino)-3,4-dioxocyclobut-1-en-1-yl)amino)-3-hydroxy-N,N-dimethylpicolinamide], for which the IC50 at CCR6 (setting [4]) was 12 nM; at CXCR2 [2] (setting [5]), 4410 nM. Moreover, the “T Cell Chemotaxis Selectivity” value on CCR6 came out at 367.

For `CCN(C)C(=O)c1nccc(Nc2c(N[C@@H](c3nn(C)cc3C#N)C3(C)CCCC3)c(=O)c2=O)c1O` [Example 30, (R)-4-((2-(((4-Cyano-1-methyl-1H-pyrazol-3-yl)(1-methylcyclopentyl)methyl)amino)-3,4-dioxocyclobut-1-en-1-yl)amino)-N-ethyl-3-hydroxy-N-methylpicolinamide], the IC50 amounted to 96.1 nM on CCR6 (setting [4]) and 4030 nM on CXCR2 [2] (setting [5]). For the same compound, the “T Cell Chemotaxis Selectivity” value at CCR6 was 42.

Consider `CC(C)N(C)C(=O)c1nccc(Nc2c(N[C@@H](c3nn(C)cc3C#N)C3(C)CCCC3)c(=O)c2=O)c1O` [Example 31, (R)-4-((2-(((4-cyano-1-methyl-1H-pyrazol-3-yl)(1-methylcyclopentyl)methyl)amino)-3,4-dioxocyclobut-1-en-1-yl)amino)-3-hydroxy-N-isopropyl-N-methylpicolinamide], for which the IC50 on CCR6 (setting [4]) was 45.4 nM; at CXCR2 [2] (setting [5]), 2750 nM. In addition, the “T Cell Chemotaxis Selectivity” value on CCR6 is reported as 60.

As to `Cc1nc([C@H](Nc2c(Nc3ccnc(C(=O)N(C)C)c3O)c(=O)c2=O)C2(C)CCCC2)c(C)s1` [Example 32, (R)-4-((2-(((2,5-Dimethylthiazol-4-yl)(1-methylcyclopentyl)-methyl)amino)-3,4-dioxocyclobut-1-en-1-yl)amino)-3-hydroxy-N,N-dimethylpicolinamide], the IC50 at CCR6 (setting [4]) came out at 2.7 nM; at CCR6 (Table 14, R = CH3, read-out: R = CH3, IC50 (nM) CCR6 T cell, CCL20 Chemotaxis) it was 2.7 nM; at CXCR2 [2] (setting [5]), 332 nM; on CXCR2 [2] (Table 14, R = CH3, read-out: R = CH3, IC50 (nM) CXCR2 Neutrophil, GROα Chemotaxis), 332 nM. Besides, the “T Cell Chemotaxis Selectivity” value at CCR6 is on record as 123. Also, the “R = CH3, T Cell Chemotaxis Selectivity” value on CCR6 (Table 14, R = CH3) amounted to 123.

`COc1sc(C)nc1[C@H](Nc1c(Nc2ccnc(C(=O)N(C)C)c2O)c(=O)c1=O)C1(C)CCCC1` [Example 33, (R)-3-Hydroxy-4-((2-(((5-methoxy-2-methylthiazol-4-yl)(1-methylcyclopentyl)methyl)amino)-3,4-dioxocyclobut-1-en-1-yl)amino)-N,N-dimethylpicolinamide]: the IC50 turned out to be 4.4 nM on CCR6 (setting [4]) and 69.9 nM on CXCR2 [2] (setting [5]). Moreover, at CCR6, the “T Cell Chemotaxis Selectivity” value came out at 16.

Consider `CCc1cn(C)nc1[C@H](Nc1c(Nc2ccnc(C(=O)N(C)C)c2O)c(=O)c1=O)[C@]1(C)CC(F)(F)CO1` [Example 37, 4-((2-(((S)-((S)-4,4-Difluoro-2-methyltetrahydrofuran-2-yl) (4-ethyl-1-methyl-1H-pyrazol-3-yl)methyl)amino)-3,4-dioxocyclobut-1-en-1-yl)amino)-3-hydroxy-N,N-dimethylpicolinamide], for which the values for the IC50 at CCR6 (setting [4]) and at CXCR2 [2] (setting [5]) were 5.2 nM and 3630 nM, respectively. The “T Cell Chemotaxis Selectivity” value at CCR6 is recorded as 698.

With `Cc1nc([C@H](Nc2c(Nc3ccnc(C(=O)N(C)C)c3O)c(=O)c2=O)[C@]2(C)CC(F)(F)CO2)c(C)s1` [Example 38, 4-((2-(((S)-((S)-4,4-Difluoro-2-methyltetrahydrofuran-2-yl) (2,5-dimethylthiazol-4-yl)methyl)amino)-3,4-dioxocyclobut-1-en-1-yl)amino)-3-hydroxy-N,N-dimethylpicolinamide], the IC50 came to 12.6 nM on CCR6 (setting [4]) and 3460 nM on CXCR2 [2] (setting [5]). Also, on CCR6, the “T Cell Chemotaxis Selectivity” value worked out at 274.

Turning to `Cc1ccc([C@H](Nc2c(Nc3ccc(Cl)c(C(=O)N4CCN(C)CC4)c3O)c(=O)c2=O)C2(C)COC2)o1` [Example 53, reference compound], the IC50 is 30 nM at CXCR2 [1] and 1140 nM on CXCR2 [2] (setting [3]).

Take `CC[C@@H](Nc1c(Nc2ccnc(C(=O)N(C)C)c2O)c(=O)c1=O)c1cccc(C2CC2)c1` [Example 120, reference compound]: the IC50 on CCR6 (Table 15, WO 2010/131145 comparator compounds, read-out: IC50 (nM) CCR6 T cell, CCL20 Chemotaxis) was 388 nM; at CXCR2 [2] (Table 15, WO 2010/131145 comparator compounds, read-out: IC50 (nM) CXCR2 Neutrophil, GROα Chemotaxis), 5.7 nM.

For the compound `CN(C)C(=O)c1nccc(Nc2c(NC(c3ccn(C)n3)C3(C)CCCC3)c(=O)c2=O)c1O` (centres unmarked) [drawing 179 (R = H), reference compound], on CCR6 (Table 14, R = H), the “R = H, T Cell Chemotaxis Selectivity” value was found to be 2.2. Moreover, the IC50 at CCR6 (setting [6]) came to 19.2 nM; on CXCR2 [2] (setting [7]), 42.1 nM.

For the compound `Cc1nc([C@H](Nc2c(Nc3ccnc(C(=O)N(C)C)c3O)c(=O)c2=O)C2(C)CCCC2)cs1` [drawing 180 (R = H), reference compound], at CCR6 (Table 14, R = H), the “R = H, T Cell Chemotaxis Selectivity” value was found to be 10.8. The IC50 on CCR6 (setting [6]) came to 32.1 nM; on CXCR2 [2] (setting [7]), 346 nM.

Take `Cc1nc([C@H](Nc2c(Nc3ccnc(C(=O)N(C)C)c3O)c(=O)c2=O)C2(C)CCCC2)co1` [drawing 181 (R = H), reference compound]: the results for the IC50 on CCR6 (setting [6]) and at CXCR2 [2] (setting [7]) were 64.5 nM and 12.2 nM, respectively.
